Experimental data: patent publication US6933396B2, “Process to prepare psorospermin” (Cylene Pharmaceuticals, priority 2002, dated 2005)

Columns and labels:
[1] = Blood plasma levels (pharmacokinetics) after i.v. injection in rats; type: in vivo, Sprague Dawley rats; details: for blood plasma levels of parent compound: over 24 h
Protocol: Blood plasma levels of psorospermin over 24 h after a 5 mg/Kg injection i.v. in Sprague Dawley rats were measured. Blood plasma levels of 5-methoxy-psorospermin over 24 h after a 5 mg/Kg injection i.v. in Sprague Dawley rats were measured.

various tumor cell lines = experiment: MTS cytotoxicity / cell viability assays with various tumor cell lines; type: cell-based
From the text: FIG. 1 illustrates a comparison of (R,R)-psorospermin with (R,R)-5-methoxy-psorospermin, (R,S)-5-methoxy-psorospermin, (S,R)-5-methoxy-psorospermin and (S,S)-5-methoxy-psorospermin in cell viability assays with various tumor cell lines.
MTS cytotoxicity data was collected for a comparison of (R,R)-psorospermin with (R,R)-5-methoxy-psorospermin, (R,S)-5-methoxy-psorospermin, (S,R)-5-methoxy-psorospermin and (S,S)-5-methoxy-psorospermin in cell viability assays with various tumor cell lines, the results of which are shown in FIG. 1.

[2] = 5 mg/Kg injection i.v., Sprague Dawley rats

Compound	blood plasma levels of parent compound [1, 2]	blood plasma levels of parent compound ([1]; 5 mg/Kg injection i.v., Sprague Dawley rats, listed as natural product)	time for which a therapeutic dose is exhibited in rodents ([1]; 5 mg/Kg injection i.v., Sprague Dawley rats, FIG. 3)	systemic presence ([1]; in comparison with 2′R,3′R psorospermin)	activity relative to stereoisomeric counterparts (various tumor cell lines; compared with (2R′, 3S′) or (2S′, 3S′) counterparts)	antitumor activity in a variety of cell lines (various tumor cell lines; variety of cell lines including those of solid tumors and lymphomas, compared with natural product psorospermin)
COc1cc2c(c3oc4c(O)cccc4c(=O)c13)C[C@H]([C@@]1(C)CO1)O2 [psorospermin, (2′R,3′R) Psorospermin]	Little parent compound can be detected within the first 24 h after dosing	could be barely detected at any time point	–	–	–	–
COc1cccc2c(=O)c3c(OC)cc4c(c3oc12)C[C@H]([C@@]1(C)CO1)O4 [(R,R)-5-Methoxypsorospermin, (2′R,3′R) 5-Methoxy Psorospermin]	prolonged measurable quantities of the parent with a good half life	–	exceeds two hours	prolonged systemic presence in comparison with 2′R,3′R psorospermin	more active than their (2R′, 3S′) or (2S′, 3S′) counterparts	comparable antitumor activity to that of the natural product psorospermin
